The source of these data is patent US7977049B2, “Methods and compositions for extending the life span and increasing the stress resistance of cells and organisms” (priority 2002, dated 2011).

In test [1] the test system is rDNA locus of yeast (W303AR5 strains). As to the kind of experiment: Ribosomal DNA recombination (loss of ADE2 marker at the rDNA locus). As to conditions: 5 mM nicotinamide. Format: cell-based, Saccharomyces cerevisiae. The protocol: (§1) FIG. 9. […] A, Strains were assayed for rDNA stability by examining the rate of loss of an ADE2 marker integrated at the rDNA locus. […] More than 10,000 colonies were examined for each strain and each experiment was performed in triplicate. Average recombination frequencies (+/−s.d.) per cell division are shown. Relevant strains: W303-1A RDN1::ADE2 (W303AR5) and W303AR5 derivatives 2×SIR2 (YDS1572) and sir2::TRP1 (YDS878). […] C and D, Life spans were determined by scoring the number of daughter cells produced by each mother cell before cessation of cell division (68′,69′). Cells were pre-grown for a minimum of 48 h on complete glucose medium.

Another test relates to Sir2. Kind of test: Sir2 protein levels in the presence of nicotinamide. The note with it: nicotinamide 1-5 mM. Format: cell-based, Saccharomyces cerevisiae.
The next test relates to silencing at telomeres. Kind of test: Telomeric silencing assay (ADE2 marker at the telomere). Format: cell-based, Saccharomyces cerevisiae. The note with it: 5 mM nicotinamide, limiting adenine.
Test [2] deals with silent mating type locus (HMR). Kind of test: HMR::GFP reporter silencing (fluorescence microscopy and FACS). The note with it: for GFP expression from HMR by FACS: asynchronous wild type cells, 5 mM compound. Format: cell-based, Saccharomyces cerevisiae. How it is done: FIG. 10. […] Cells were photographed live. […] Cells were analyzed by fluorescent activated cell sorting (FACS) to determine the extent of ADH-GFP expression. C, A MATa derivative of strain YDS970 (YDS1005) was deleted for HML and treated with 10 μg/ml alpha-factor for 3 hours. […] Cell cycle progression was monitored at each time point by FACS analysis of propidium iodide stained cells.
GFP fluorescence was quantified by fluorescence-activated cell sorting (FACS) using a FACSCalibur flow cytometer (Becton Dickinson, Calif.) as described (45′). For G1-arrest experiments, cells were treated with 10 μg/ml alpha factor for 3 hours. DNA content was determined by FACS analysis of fixed cells stained with propidium iodide (Sigma) as described (45′). Typically 20,000 cells were analyzed per sample. Data acquisition and analysis were performed using CELLQuest software (Becton Dickenson).

The target of test [3] is T1, association of Sir2 with rDNA, HMR and sub-telomeric DNA (Saccharomyces cerevisiae, UniProt P06700).
T1 construct: endogenous in cells; host or cells: S. cerevisiae W303AR5
As to the kind of experiment: Chromatin immunoprecipitation with α-Sir2 antibody. Format: cell-based. As to conditions: 5 mM nicotinamide. How it is done:
FIG. 12. […] PCR amplification of both input DNA from whole cell extracts and immunoprecipitated chromatin are shown. PCR was performed using primer pairs specific for the CUP1 gene (top panels), 5S rDNA (second panels), the HMR locus (third panels), or subtelomeric DNA 1.4 and 0.6 kb from telomeres (bottom panels).
Fluorescence Microscopy and Chomatin immunoprecipitation—GFP fluorescence was visualized in live cells grown to log phase in synthetic complete (SC) medium (1.67% yeast nitrogen base, 2% glucose, 40 mg/liter each of histidine, uridine, tryptophan, adenine and leucine). Images were captured using a Nikon Eclipse E600 microscope at a magnification of 1000× and analyzed with Scion Image software. PCR reactions were carried out in a 50 μl volume using a 1/5000 or a 1/12500 dilution of input DNA from precleared whole-cell extracts and a 1/50 dilution of immunoprecipitated DNA. PCR parameters were as follows. For CUP1 and 5S rDNA primer pairs, 26 cycles of PCR were performed with an annealing temperature of 55° C. For Tel 0.6, Tel 1.4 and HM primer pairs 32 cycles at an annealing temperature of 50° C. were used. PCR products were separated by gel electrophoresis on a 2.3% agarose gel and visualized by ethidium bromide staining.

Test [4] relates to yeast (PSY316AT and sir2::TRP1 strains). The protocol:
as §1
Replicative life span determination was performed by micromanipulation as described (25′). A minimum of 40 cells were examined per experiment and each experiment was performed at least twice independently. Statistical significance of life span differences was determined using the Wilcoxon rank sum test. Differences are stated to be significant when the confidence is higher than 95%.
Cells were grown for two days on fresh yeast YPD medium to ensure that they had fully recovered from conditions of calorie restriction prior to the assay. Daughter cells that emerged from previously unbudded mother cells were then micro-manipulated away and scored.

For test [5], the system named is silencing at the rDNA locus (RDN1).
Description: Silencing of the MET15 marker is indicated by the accumulation of a brown pigment. Single dark brown colonies in RDN1::MET15 strains represent marker loss events. […] Silencing of the ADE2 marker results in the accumulation of a red pigment.
Cells were grown at 30° C. on YPD medium (1% yeast extract, 2% bactopeptone, 2% glucose w/v) unless otherwise stated. The extent of silencing at the ribosomal DNA locus was determined by growing RDN1::MET15 strains on Pb^2+-containing medium (0.3% peptone, 0.5% yeast extract, 4% glucose, 0.02% (w/v) ammonium acetate, 0.07% Pb(NO3)2 and 2% agar).
Strains with either an ADE2 or MET15 marker integrated at the rDNA locus (RDN1) were examined. Silencing of ADE2 results in the accumulation of a red pigment on plates with limiting adenine, whereas silencing of MET15 leads to production of a brown pigment on Pb^2+-containing medium. […] Strains with a single extra copy of SIR2 (2×SIR2) or lacking SIR2 (sir2::TRP1), were included as controls for increased silencing and lack of silencing, respectively.
The target in another test is T2, recombinant human SIRT1 (Homo sapiens, UniProt Q96EB6).
T2 sequence (Q96EB6 1-747): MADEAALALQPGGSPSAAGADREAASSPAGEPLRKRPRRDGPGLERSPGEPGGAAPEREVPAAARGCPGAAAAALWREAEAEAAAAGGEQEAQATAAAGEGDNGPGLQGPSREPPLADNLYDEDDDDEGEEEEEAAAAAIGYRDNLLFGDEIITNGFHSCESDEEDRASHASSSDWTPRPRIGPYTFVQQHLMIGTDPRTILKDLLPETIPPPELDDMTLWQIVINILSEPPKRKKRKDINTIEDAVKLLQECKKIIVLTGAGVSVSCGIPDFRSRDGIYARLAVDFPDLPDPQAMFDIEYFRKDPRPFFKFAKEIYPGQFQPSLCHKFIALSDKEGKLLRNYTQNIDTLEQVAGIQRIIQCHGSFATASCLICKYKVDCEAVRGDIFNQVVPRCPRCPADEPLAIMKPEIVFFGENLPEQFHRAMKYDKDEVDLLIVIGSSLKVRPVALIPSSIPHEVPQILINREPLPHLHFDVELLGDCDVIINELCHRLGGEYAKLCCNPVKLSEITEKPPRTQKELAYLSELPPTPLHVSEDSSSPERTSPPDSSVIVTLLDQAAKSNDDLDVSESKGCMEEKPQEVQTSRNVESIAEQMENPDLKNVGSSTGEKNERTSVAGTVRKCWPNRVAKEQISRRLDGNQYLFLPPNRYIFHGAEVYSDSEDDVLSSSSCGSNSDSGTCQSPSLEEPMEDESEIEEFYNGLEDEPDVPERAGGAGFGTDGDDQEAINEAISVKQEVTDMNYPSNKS
Kind of test: In vitro deacetylation assay (HDAC Fluorescent Activity Assay), SIRT1. Format: biochemical. The protocol: (§2) FIG. 13. […] Reactions were terminated by the addition of developer and samples were analyzed by fluorometry (excitation set at 360 nm and emission at 460 nm). Experiments were performed in triplicate. Data is shown as a Lineweaver-Burk double reciprocal plot of arbitrary fluorescence units (AFUs) min^−1 versus NAD^+ (μM). B, Experiments were performed as in A, except that recombinant human SIRT1 was used and reactions were carried out at 37° C. […] Reactions were carried out at 37° C. for 30 minutes and fluorescence was measured as in A.
(§3) In vitro deacetylation assays—Recombinant GST tagged yeast Sir2p (gift of D. Moazed) and recombinant human SIRT1 (47′) were assayed for deacetylase activity using the HDAC Fluorescent Activity Assay/Drug Discovery Kit (AK-500, BIOMOL Research Laboratories). This assay system allows detection of a fluorescent signal upon deacetylation of a histone substrate when treated with developer. Fluorescence was measured on a fluorometric reader (Cytofluor II 400 series PerSeptive Biosystems) with excitation set at 360 nm and emission detection set at 460 nm. Reactions consisted of either 5 μg of GST-Sir2 or 2.5 μg of SIRT1, incubated with 250 μM acetylated histone substrate, 1 mM DTT and a range of NAD^+ concentrations as described, in 50 μl of assay buffer. […]

The test system of test [6] is silencing of mating type genes. As to the kind of experiment: Mating type locus silencing assay. The note with it: nicotinamide. Format: cell-based, Saccharomyces cerevisiae.
The target of test [7] is T3, Recombinant GST tagged yeast Sir2p (Saccharomyces cerevisiae, UniProt P06700).
T3 construct: gift of D. Moazed
Kind of test: In vitro deacetylation assay (HDAC Fluorescent Activity Assay), Sir2. It is filed as biochemical. As to conditions: 200-750 μM NAD+, 30° C. The protocol:
as §2, §3

Read-outs that look alike come from different tables or passages of the source.

T1 sequence (P06700 whole entry): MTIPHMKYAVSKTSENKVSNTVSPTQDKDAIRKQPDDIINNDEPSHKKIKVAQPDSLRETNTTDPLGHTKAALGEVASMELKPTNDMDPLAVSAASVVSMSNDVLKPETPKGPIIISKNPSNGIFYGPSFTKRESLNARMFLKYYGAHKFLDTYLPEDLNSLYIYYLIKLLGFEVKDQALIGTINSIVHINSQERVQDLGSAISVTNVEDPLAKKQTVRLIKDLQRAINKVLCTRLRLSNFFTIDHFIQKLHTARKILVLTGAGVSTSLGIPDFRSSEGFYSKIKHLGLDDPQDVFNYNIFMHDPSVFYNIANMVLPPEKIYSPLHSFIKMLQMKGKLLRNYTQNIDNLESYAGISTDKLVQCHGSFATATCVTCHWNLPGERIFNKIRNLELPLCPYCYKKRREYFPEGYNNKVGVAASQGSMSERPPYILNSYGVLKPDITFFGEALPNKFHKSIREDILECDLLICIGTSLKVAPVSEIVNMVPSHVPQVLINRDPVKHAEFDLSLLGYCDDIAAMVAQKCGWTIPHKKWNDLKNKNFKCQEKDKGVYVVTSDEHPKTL
T3 sequence (P06700 whole entry): as above
Description for silencing at telomeres: Silencing of the MET15 marker is indicated by the accumulation of a brown pigment. Single dark brown colonies in RDN1::MET15 strains represent marker loss events. Relevant genotypes: met15Δ (JS209), MET15 (JS241), RDN1::MET15 (JS237), sir2::TRP1 (JS218), 2×SIR2 (YDS1583). […] Silencing of the ADE2 marker results in the accumulation of a red pigment. Relevant genotypes: (PSY316AT), W303-1 A ADE2 (YDS1596) and W303-1A ade2 (YDS 1595).
Cells were grown at 30° C. on YPD medium (1% yeast extract, 2% bactopeptone, 2% glucose w/v) unless otherwise stated. The extent of silencing at the ribosomal DNA locus was determined by growing RDN1::MET15 strains on Pb^2+-containing medium (0.3% peptone, 0.5% yeast extract, 4% glucose, 0.02% (w/v) ammonium acetate, 0.07% Pb(NO3)2 and 2% agar). […] Ribosomal DNA recombination frequencies were determined as previously described (44′).
To monitor telomeric silencing, we used a strain in which the ADE2 gene is integrated at the subtelomeric (Y′) region of the right arm of chromosome V (22′). On plates with limiting adenine, colonies have red/white sectors due to variegated expression of the ADE2 marker.

On to `NC(=O)c1cccnc1` [nicotinamide], for which the “rDNA recombination in the sir2 strain” value in test [1] (sir2 strain) is given as “did not further increase recombination”. Further, the “increase of the frequency of ADE2 marker loss at the rDNA” value in test [1] (wild type and 2×SIR2 cells) is reported as roughly 7 fold. In addition, the Sir2 protein levels result in the test with Sir2 is recorded as “unaltered”. The “telomeric silencing of ADE2 marker” value in the test on silencing at telomeres was “complete loss of repression”. For the same compound, in test [2] (alpha factor arrested cells, 5 mM nicotinamide), the “HMR silencing in G1-arrested cells by FACS” value was “loss of silencing”. The “GFP expression from HMR by FACS” value in [2] was “complete derepression”. Besides, the “GFP expression from HMR, live cells (microscopy)” value in [2] (cycling cells, 5 mM nicotinamide, after 60 minutes) is “dramatic increase in the level of expression”. Also, in test [3], the “ChIP: Sir2 association with 5S rDNA” value was “did not alter the amount of PCR product” and the “ChIP: Sir2 association with HMR” value is “no PCR product was obtained”. Besides, in [3] (0.6 and 1.4 kb from telomere), the “ChIP: Sir2 association with sub-telomeric DNA” value is reported as “equivalent to background”. Further, in [4] (sir2::TRP1 (YDS1594), 5 mM nicotinamide), the “Average life span, sir2 strain” value came out at 11.7. Moreover, the “Average life span, wild type” value in test [4] (wild type (PSY316AT), 5 mM nicotinamide) turned out to be 12.1. In test [5] (5 mM nicotinamide), the “silencing of MET15 marker at the rDNA locus” value is listed as “completely abolished”. In addition, the “Silencing of an ADE2 marker at the rDNA locus” value in test [5] (addition of nicotinamide) was “similarly abolished”. The “mode of inhibition of SIRT1 (Lineweaver-Burk plot)” value at recombinant human SIRT1 (varying amounts of nicotinamide and NAD+) is “non-competitive”. Also, the “silencing of mating type genes” value in test [6] is given as “completely abrogated silencing”. In addition, in [7], the “mode of inhibition of Sir2 deacetylation (Lineweaver-Burk plot)” value is listed as “strong non-competitive inhibitor”.
Turning to `O=C(O)c1cccnc1` [nicotinic acid], the “GFP expression from HMR by FACS” value in test [2] is “no increase in GFP expression”. In addition, the “effect on replicative life span” value in [4] (5 or 50 mM nicotinic acid) is “no detrimental effect”. Besides, the “Average life span, sir2 strain” value in [4] (sir2 strain, nicotinic acid (concentration not clear)) came out at 12.2. The “Average life span, wild type” value stood at 26 in test [4] (wild type, 5 mM nicotinic acid) and 25 in test [4] (wild type, 50 mM nicotinic acid). Besides, the “effect on Sir2-dependent silencing” value in test [5] (5 mM nicotinic acid, each of the rDNA, telomeric and mating type silencing assays) was “no effect”. For the same compound, on recombinant human SIRT1 (50 μM compound, 200 μM NAD+), the “effect on the activity of SIRT1 in vitro” value is listed as “no effect”.
As for `O=C(O)c1cccnc1C(=O)O` [quinolinic acid], the “GFP expression from HMR by FACS” value in [2] is reported as “no increase in GFP expression”.
